For 36 molecules, GI50 results are on record in ChEMBL document CHEMBL1136870, “Synthesis of aristolactam analogues and evaluation of their antitumor activity” (2009).

What all share (type): functional
The test system of experiment [1] is SK-OV-3. Put plainly: Antiproliferative activity against human SKOV3 cells by SRB assay.
In experiment [2] the test system is A-431. The experiment in a line: Antiproliferative activity against human A431 cells by SRB assay. Background: In SRB staining, fixed cells bind dye roughly in proportion to their protein.
The subject of experiment [3] is MDA-MB-231. Put plainly: Antiproliferative activity against human MDA-MB-231 cells by SRB assay.
Experiment [4] deals with BT-474. Put plainly: Antiproliferative activity against human BT474 cells by SRB assay.
In experiment [5] the test system is HCT-15. Put plainly: Antiproliferative activity against human HCT15 cells by SRB assay.
Experiment [6] concerns A549. The experiment in a line: Antiproliferative activity against human A549 cells by SRB assay.
The nature of experiment [7]: Antiproliferative activity against human MESSA cells by SRB assay. The settings on record: MES-SA.
Experiment [8] can be described thus: Antiproliferative activity against multidrug resistant human MES-SA/Dx5 cells by SRB assay.
Experiment [9] in a line: Antiproliferative activity against multidrug resistant human HCT15/CLO2 cells by SRB assay. As to conditions: HCT-15.

Usually GI50 stands for the concentration giving 50% growth inhibition. A lower GI50 goes with greater sensitivity of the cells. Regarding `COc1cc2c3c(cc4ccccc4c3c1OC)N(C(C)C)C2=O`, the GI50 in experiment [1] was 19.4 µM; in experiment [2], over 30 µM; in experiment [3], over 30 µM; in experiment [4] it was 20.6 µM.
On to `Cc1c2c3c(cccc3c3ccccc13)C(=O)N2C`, for which the GI50 was 3.79 µM in experiment [5], 13.1 µM in [1], 2.83 µM in experiment [2] and 1.62 µM in experiment [6].
As for `COc1cc2c3c(cc4cc(Cl)ccc4c3c1OC)N(C)C2=O`, the GI50 was over 30000 nM in experiment [7], over 30 µM in experiment [8], 2.94 µM in experiment [5] and 17.9 µM in experiment [9].
`COc1cc2c3c(c(C)c4ccccc4c3c1OC)N(CCN1CCCCC1)C2=O`: the GI50 in experiment [5] came out at 0.27 µM; in experiment [1], 0.33 µM; in experiment [2], 0.18 µM; in experiment [6], 0.18 µM.
For the molecule `CCN1C(=O)c2cc(OC)c(OC)c3c2c1cc1ccccc13`, the GI50 is 5.45 µM in experiment [1], 10.9 µM in experiment [2], 9.37 µM in experiment [3] and 4.16 µM in experiment [4].
Regarding `CC(=O)O[C@H]1C(=O)[C@@]2(C)[C@H]([C@H](OC(=O)c3ccccc3)[C@]3(O)C[C@H](OC(=O)[C@H](O)[C@@H](NC(=O)c4ccccc4)c4ccccc4)C(C)=C1C3(C)C)[C@]1(OC(C)=O)CO[C@@H]1C[C@@H]2O` [PACLITAXEL], the GI50 in [7] is under 0.01 nM; in experiment [8] it was 0.16 µM; in experiment [5], 0.011 µM; in experiment [9], 0.83 µM; in experiment [2] it was under 1e-05 µM.
For the molecule `COc1cc2c3c(cc4ccccc4c3c1OC)N(Cc1cccs1)C2=O`, the GI50 was 23.8 µM in experiment [1], over 30 µM in experiment [2], over 30 µM in experiment [3] and over 30 µM in [4].
Regarding `COc1ccc2cc3c4c(cc(OC)c(OC)c4c2c1)C(=O)N3CCN1CCCCC1`, the GI50 in experiment [5] is 5.91 µM; in [1], 6.72 µM; in experiment [2], 2.95 µM; in experiment [6], 4.1 µM.
Take `COc1ccc2c(c1)cc1c3c(cc(OC)c(OC)c32)C(=O)N1C`: the GI50 in [7] came to 1220 nM; in [8], 0.76 µM; in experiment [5], 0.3 µM; in experiment [9], 0.16 µM.
Consider `C#CCN1C(=O)c2cc(OC)c(OC)c3c2c1cc1ccccc13`, for which the GI50 in experiment [1], in [2], in [3] and in experiment [4] was over 30 µM each time.
With `COc1cc2cc3c4c(cc(OC)c(OC)c4c2cc1OC)C(=O)N3C`, the GI50 in [7] amounted to 1050 nM; in experiment [8], 1.01 µM; in experiment [5], 0.06 µM; in experiment [9], 0.07 µM.
As for `COc1cc2c3c(cc4ccccc4c3c1OC)N(CCN1CCCCC1)C2=O`, the GI50 in [7] came to 1460 nM; in [8] it was 1.51 µM; in [5] it was 1.73 µM; in [9], 1.58 µM; in experiment [1], 0.95 µM; in experiment [2], 1.29 µM. In addition, the GI50 in [6] is 0.95 µM.
Consider `COc1c(O)cc2c3c(cc4ccccc4c13)N(C)C2=O` [SAURISTOLACTAM], for which the GI50 in experiment [7] was determined as 23800 nM; in [8] it was 23.1 µM; in experiment [5] it was 4.1 µM; in experiment [9], 4.38 µM.
As for `COc1cc2c3c(cc4ccccc4c3c1OC)N(C)C2=O`, the concentration for 50% growth inhibition (GI50) in experiment [7] was found to be 3840 nM; in [8], 9.52 µM; in experiment [5], 8.47 µM; in experiment [9] it was 8.61 µM; in experiment [1], 3.42 µM; in experiment [2], 5.75 µM.
For the molecule `COc1cc2c3c(cc4ccccc4c3c1OC)N(CCc1ccccc1)C2=O`, the GI50 is 13.4 µM in experiment [1], 23.7 µM in experiment [2], over 30 µM in experiment [3] and 12.8 µM in experiment [4].
`COc1cc2c3c(cc4ccccc4c3c1O)NC2=O` [PIPEROLACTAM A]: the GI50 was over 30000 nM in experiment [7], 27 µM in experiment [8], over 30 µM in experiment [5] and over 30 µM in experiment [9].
As to `COc1cc([C@@H]2c3cc4c(cc3[C@@H](O[C@@H]3O[C@@H]5CO[C@@H](C)O[C@H]5[C@H](O)[C@H]3O)[C@H]3COC(=O)[C@H]23)OCO4)cc(OC)c1O` [ETOPOSIDE], the GI50 in experiment [7] is 210 nM; in experiment [8] it was 9.72 µM; in [5] it was 1.25 µM; in experiment [9], 10 µM.
Regarding `COc1cc2c3c(cc4c5c(ccc4c3c1OC)OCO5)N(CCN(C)C)C2=O`, the GI50 in experiment [7] is under 0.1 nM; in experiment [8], under 0.0001 µM; in experiment [5], under 0.0001 µM; in experiment [9], 0.0095 µM; in experiment [1] it was under 0.1 µM; in [2], under 0.0001 µM. Moreover, the GI50 in [6] is under 0.1 µM.
As to `COc1cccc2c1C(=O)c1c(O)c3c(c(O)c1C2=O)C[C@@](O)(C(=O)CO)C[C@@H]3O[C@H]1C[C@H](N)[C@H](O)[C@H](C)O1` [DOXORUBICIN], the GI50 came to 5.1 nM in experiment [7]; 0.93 µM in [8]; 0.19 µM in experiment [5]; 7.92 µM in experiment [9]; 0.021 µM in experiment [1]; 0.0012 µM in experiment [2]. In addition, the GI50 in [6] is 0.003 µM.
As for `COc1cc2c3c(cc4cc5c(cc4c3c1OC)OCO5)N(C)C2=O`, the GI50 was 27100 nM in [7], 18.9 µM in experiment [8], 5.93 µM in experiment [5] and 1.64 µM in [9].
As to `COc1cc2c3c(cc4ccccc4c3c1OC)N(CCN1CCOCC1)C2=O`, the GI50 in experiment [1] came out at 5.49 µM; in experiment [2] it was 4.64 µM.
Regarding `COc1cc2c3c(cc4ccccc4c3c1O)N(C)C2=O` [N-METHYL PIPEROLACTAM A], the GI50 was 14500 nM in [7], 14.5 µM in [8], 12.8 µM in [5] and 10.8 µM in experiment [9].
Regarding `COc1cc2c3c(cc4ccccc4c3c1OC)N(c1ccc(C(C)(C)C)cc1)C2=O`, the GI50 was determined as 6.04 µM in [1], 3.51 µM in experiment [2], 18.2 µM in experiment [3] and 11.1 µM in experiment [4].
In the case of `COc1cc2c3c(cc4c5c(ccc4c3c1OC)OCO5)N(CCN1CCCCC1)C2=O`, the GI50 was under 100 nM in [7]; under 0.1 µM in experiment [8]; 0.1 µM in [5]; 0.14 µM in experiment [9]; under 0.1 µM in experiment [1]; under 0.1 µM in experiment [2]. The molecule further showed a GI50 in experiment [6] of under 0.1 µM.
With `COc1cc2c3c(cc4ccccc4c3c1OC)NC2=O` [CEPHARANONE B], the GI50 in experiment [7] is over 30000 nM; in experiment [8] it was over 30 µM; in experiment [5], over 30 µM; in [9], over 30 µM.
Turning to `COc1ccc2cc3c4c(cc(OC)c(OC)c4c2c1)C(=O)N3` [ARISTOLACTAM BIII], the GI50 in [7] was found to be 2700 nM; in experiment [8], 2.82 µM; in experiment [5] it was 3.74 µM; in experiment [9], 3.35 µM.
Regarding `COc1cc2c3c(cc4ccccc4c3c1OC)N(CC1CC1)C2=O`, the GI50 is 24.2 µM in experiment [1], 27.1 µM in experiment [2], over 30 µM in [3] and 23 µM in [4].
For the molecule `COc1cc2cc3c4c(cc(OC)c(OC)c4c2cc1OC)C(=O)N3CCN(C)C`, the GI50 came out at 390 nM in experiment [7]; 0.51 µM in [8]; 0.72 µM in experiment [5]; 0.57 µM in experiment [9]; 0.33 µM in experiment [1]; 0.15 µM in experiment [2]. In experiment [6], this molecule displayed a GI50 of 0.19 µM.
For `CN1C(=O)c2cccc3c2c1cc1ccccc13`, the GI50 in [7] was determined as 1810 nM; in experiment [8], 3.56 µM; in [5] it was 4.21 µM; in experiment [9] it was 5.72 µM; in [1], 4.26 µM; in experiment [2] it was 8.02 µM. The same molecule came in with a GI50 in experiment [6] of 1.54 µM.
Take `COc1cc2c3c(cc4cc(Cl)ccc4c3c1OC)N(CCN1CCCCC1)C2=O`: the GI50 came to 590 nM in [7]; 0.61 µM in [8]; 0.92 µM in experiment [5]; 0.83 µM in experiment [9]; 0.91 µM in experiment [1]; 0.18 µM in [2]. In addition, the GI50 in [6] is 0.26 µM.
Turning to `COc1cc2c3c(cc4ccccc4c3c1OC)N(Cc1ccncc1)C2=O`, the values for the GI50 in experiment [1] and in experiment [2] were 9.94 µM and over 30 µM, respectively.
As for `COc1cc2cc3c4c(cc(OC)c(OC)c4c2cc1OC)C(=O)N3CCN1CCCCC1`, the GI50 in [5] was 4.22 µM; in experiment [1], 1.71 µM; in experiment [2] it was 1.19 µM; in [6] it was 1.54 µM.
Turning to `COc1ccc(N2C(=O)c3cc(OC)c(OC)c4c3c2cc2ccccc24)cc1`, the GI50 in [1] is 16.2 µM; in experiment [2] it was 32.5 µM; in [3], over 30 µM; in experiment [4] it was 23.7 µM.
Regarding `COc1cc2c3c(cc4ccc(C)cc4c3c1OC)N(C)C2=O`, the GI50 in experiment [7] was over 30000 nM; in [8], over 30 µM; in experiment [5], 1.53 µM; in experiment [9], 1.46 µM.
Regarding `COc1cc2c3c(c(C)c4ccccc4c3c1OC)N(C)C2=O`, the GI50 in experiment [1] and in experiment [2] was over 30 µM in each case.
In the case of `COCCN1C(=O)c2cc(OC)c(OC)c3c2c1cc1ccccc13`, the GI50 is 24.3 µM in experiment [1], over 30 µM in experiment [2], over 30 µM in [3] and 22.5 µM in experiment [4].
